Active and inactive are the calls of the source. The rule behind the calls is not given here.
Key:
[1] = biological target: T1, Muscarinic acetylcholine receptor M1 (Homo sapiens) (UniProt P11229); assay: Binding affinity to human muscarinic M1 receptor expressed in CHO cells co-expressing pCRE-Luc gene assessed as modulation of acetylcholine-induced intracellular cAMP level at 0.5 uM after 5 hrs by luciferase based luminescence assay; assay type: cell-based
T1 sequence (whole entry): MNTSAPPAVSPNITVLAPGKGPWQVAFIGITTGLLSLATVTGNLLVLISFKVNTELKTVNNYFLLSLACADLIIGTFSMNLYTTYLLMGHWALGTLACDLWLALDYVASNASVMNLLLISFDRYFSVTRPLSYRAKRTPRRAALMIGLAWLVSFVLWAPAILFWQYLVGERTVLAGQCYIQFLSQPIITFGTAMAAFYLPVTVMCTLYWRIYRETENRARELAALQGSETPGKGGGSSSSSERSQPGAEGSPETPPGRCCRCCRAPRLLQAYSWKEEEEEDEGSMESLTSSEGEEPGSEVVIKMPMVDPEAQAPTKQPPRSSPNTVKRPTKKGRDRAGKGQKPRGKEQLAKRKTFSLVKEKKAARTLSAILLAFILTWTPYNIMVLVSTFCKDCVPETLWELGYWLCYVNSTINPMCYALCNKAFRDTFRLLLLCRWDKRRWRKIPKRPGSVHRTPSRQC

[2] = biological target: 5-hydroxytryptamine receptor 4 (Homo sapiens) (UniProt Q13639); assay: Binding affinity to human recombinant 5HT4 receptor expressed in CHO cells co-expressing pCRE-Luc gene assessed as modulation of serotonin-induced intracellular cAMP level at 0.5 uM after 5 hrs by luciferase based luminescence assay; assay type: cell-based
[3] = biological target: D(2) dopamine receptor (Homo sapiens) (UniProt P14416); assay: Inhibition of dopamine D2 receptor at 0.5 uM
[4] = Half life in Wistar rat at 10 mg/kg, po; assay type: ADME, organism-based; parameters: dose 10 mg/kg, route oral; conditions: in vivo
[5] = biological target: T2, Alpha-1B adrenergic receptor (Homo sapiens) (UniProt P35368); assay: Inhibition of adrenergic alpha1b receptor at 0.5 uM
T2 sequence (whole entry): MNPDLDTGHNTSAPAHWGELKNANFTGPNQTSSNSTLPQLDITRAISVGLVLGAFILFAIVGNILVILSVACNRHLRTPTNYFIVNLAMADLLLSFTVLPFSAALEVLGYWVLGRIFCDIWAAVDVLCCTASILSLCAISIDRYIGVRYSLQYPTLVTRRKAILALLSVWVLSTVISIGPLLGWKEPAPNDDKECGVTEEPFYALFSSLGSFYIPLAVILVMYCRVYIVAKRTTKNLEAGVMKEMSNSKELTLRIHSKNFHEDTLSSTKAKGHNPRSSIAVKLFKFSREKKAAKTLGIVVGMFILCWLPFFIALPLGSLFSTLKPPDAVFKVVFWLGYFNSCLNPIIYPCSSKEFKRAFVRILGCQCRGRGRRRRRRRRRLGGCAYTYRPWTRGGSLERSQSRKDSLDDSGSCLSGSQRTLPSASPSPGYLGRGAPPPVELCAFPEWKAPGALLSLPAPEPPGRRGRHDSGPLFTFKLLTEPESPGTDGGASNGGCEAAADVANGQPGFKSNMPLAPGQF

[6] = Metabolic stability in rat liver microsomes assessed as drug metabolized level after 30 mins; assay type: ADME, Microsome; conditions: read-out: Activity
[7] = Clearance in Wistar rat at 10 mg/kg, po; assay type: ADME, organism-based; parameters: dose 10 mg/kg, route oral; conditions: in vivo
[8] = Ratio of drug level in brain to plasma in Wistar rat at 1 mg/kg, iv after 6 hrs; assay type: ADME, organism-based; parameters: dose 1 mg/kg, route intravenous
[9] = biological target: 5-hydroxytryptamine receptor 6 (Homo sapiens) (UniProt P50406); assay: Binding affinity to human recombinant 5HT6 receptor expressed in CHO cells co-expressing pCRE-Luc gene assessed as modulation of serotonin-induced intracellular cAMP level after 4 hrs by luciferase based luminescence assay; assay type: cell-based
[10] = biological target: T3, 5-hydroxytryptamine receptor 2C (Homo sapiens) (UniProt P28335); assay: Inhibition of 5HT2C receptor at 0.5 uM
T3 sequence (whole entry): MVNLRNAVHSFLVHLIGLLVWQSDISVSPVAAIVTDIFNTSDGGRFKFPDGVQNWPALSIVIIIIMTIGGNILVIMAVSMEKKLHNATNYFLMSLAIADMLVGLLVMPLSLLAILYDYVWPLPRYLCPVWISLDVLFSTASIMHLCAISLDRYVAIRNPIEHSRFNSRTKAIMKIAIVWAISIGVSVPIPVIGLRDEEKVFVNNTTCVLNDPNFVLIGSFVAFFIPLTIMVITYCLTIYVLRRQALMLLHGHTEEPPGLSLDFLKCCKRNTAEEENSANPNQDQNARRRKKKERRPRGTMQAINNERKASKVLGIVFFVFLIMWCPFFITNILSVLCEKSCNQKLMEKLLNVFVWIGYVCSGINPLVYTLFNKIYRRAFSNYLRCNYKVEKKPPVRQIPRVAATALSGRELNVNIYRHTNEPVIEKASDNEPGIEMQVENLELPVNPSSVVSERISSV

[11] = AUCt in Wistar rat at 10 mg/kg, iv; assay type: ADME, organism-based; parameters: dose 10 mg/kg, route intravenous; conditions: plasma
[12] = Half life in Wistar rat at 10 mg/kg, iv; assay type: ADME, organism-based; parameters: dose 10 mg/kg, route intravenous; conditions: in vivo
[13] = system: Rattus norvegicus; assay: Cognitive enhancing effect against scopolamine-induced memory deficit in rat at 10 mg/kg, po by morris water maze test; assay type: functional, organism-based; parameters: dose 10 mg/kg
[14] = biological target: 5-hydroxytryptamine receptor 7 (Rattus norvegicus) (UniProt P32305); assay: Binding affinity to rat 5HT7 receptor expressed in CHO cells co-expressing pCRE-Luc gene assessed as modulation of serotonin-induced intracellular cAMP level at 0.5 uM after 5 hrs by luciferase based luminescence assay; assay type: cell-based
[15] = Metabolic stability in human liver microsomes assessed as drug metabolized level after 30 mins; assay type: ADME, Microsome; conditions: read-out: Activity
[16] = system: Rattus norvegicus; assay: Cognitive enhancing effect in rat at 10 mg/kg, po after 60 mins by novel object recognition test; assay type: functional, organism-based; parameters: dose 10 mg/kg
[17] = Cmax in Wistar rat at 10 mg/kg, iv; assay type: ADME, organism-based; parameters: dose 10 mg/kg, route intravenous; conditions: in vivo
[18] = biological target: Histamine H1 receptor (Homo sapiens) (UniProt P35367); assay: Inhibition of histamine H1 receptor at 0.5 uM
[19] = Clearance in Wistar rat at 10 mg/kg, iv; assay type: ADME, organism-based; parameters: dose 10 mg/kg, route intravenous; conditions: in vivo
[20] = biological target: Cytochrome P450 3A4 (Homo sapiens, UniProt P08684); assay: Inhibition of CYP3A4; assay type: ADME
[21] = biological target: Sodium-dependent noradrenaline transporter (Homo sapiens) (UniProt P23975); assay: Inhibition of NET at 0.5 uM
[22] = Oral bioavailability in Wistar rat at 10 mg/kg; assay type: ADME, organism-based; conditions: in vivo
[23] = biological target: Cytochrome P450 2D6 (Homo sapiens, UniProt P10635); assay: Inhibition of CYP2D6; assay type: ADME
[24] = biological target: Sodium-dependent dopamine transporter (Homo sapiens) (UniProt Q01959); assay: Inhibition of DAT at 0.5 uM
[25] = system: Rattus norvegicus; assay: Apparent volume of distribution in Wistar rat at 10 mg/kg, po; assay type: ADME, organism-based; parameters: dose 10 mg/kg, route oral; conditions: in vivo
[26] = biological target: Sodium-dependent serotonin transporter (Homo sapiens) (UniProt P31645); assay: Inhibition of SERT at 0.5 uM
[27] = Apparent volume of distribution in Wistar rat at 10 mg/kg, iv; assay type: ADME, organism-based; parameters: dose 10 mg/kg, route intravenous; conditions: in vivo, read-out: Vz
[28] = biological target: 5-hydroxytryptamine receptor 2A (Homo sapiens) (UniProt P28223); assay: Inhibition of 5HT2A receptor at 0.5 uM
[29] = Cmax in Wistar rat at 10 mg/kg, po; assay type: ADME, organism-based; parameters: dose 10 mg/kg, route oral; conditions: in vivo
[30] = AUCt in Wistar rat at 10 mg/kg, po; assay type: ADME, organism-based; parameters: dose 10 mg/kg, route oral; conditions: plasma

Chain of Cytochrome P450 3A4 (P08684 whole entry): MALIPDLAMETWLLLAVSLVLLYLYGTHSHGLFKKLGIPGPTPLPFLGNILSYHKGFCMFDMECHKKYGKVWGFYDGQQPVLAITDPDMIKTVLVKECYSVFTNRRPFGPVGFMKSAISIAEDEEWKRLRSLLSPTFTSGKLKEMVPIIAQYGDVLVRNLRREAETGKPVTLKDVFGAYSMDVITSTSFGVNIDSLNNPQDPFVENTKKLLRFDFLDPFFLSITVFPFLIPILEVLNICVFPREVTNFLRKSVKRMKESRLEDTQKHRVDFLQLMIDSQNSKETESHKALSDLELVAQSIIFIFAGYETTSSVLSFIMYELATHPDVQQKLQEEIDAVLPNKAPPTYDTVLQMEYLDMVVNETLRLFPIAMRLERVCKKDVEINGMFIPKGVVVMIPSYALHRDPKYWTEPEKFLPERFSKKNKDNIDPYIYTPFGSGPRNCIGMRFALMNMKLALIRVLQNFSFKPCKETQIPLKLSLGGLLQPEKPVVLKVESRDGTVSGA
Chain of Histamine H1 receptor (Homo sapiens) (P35367 whole entry): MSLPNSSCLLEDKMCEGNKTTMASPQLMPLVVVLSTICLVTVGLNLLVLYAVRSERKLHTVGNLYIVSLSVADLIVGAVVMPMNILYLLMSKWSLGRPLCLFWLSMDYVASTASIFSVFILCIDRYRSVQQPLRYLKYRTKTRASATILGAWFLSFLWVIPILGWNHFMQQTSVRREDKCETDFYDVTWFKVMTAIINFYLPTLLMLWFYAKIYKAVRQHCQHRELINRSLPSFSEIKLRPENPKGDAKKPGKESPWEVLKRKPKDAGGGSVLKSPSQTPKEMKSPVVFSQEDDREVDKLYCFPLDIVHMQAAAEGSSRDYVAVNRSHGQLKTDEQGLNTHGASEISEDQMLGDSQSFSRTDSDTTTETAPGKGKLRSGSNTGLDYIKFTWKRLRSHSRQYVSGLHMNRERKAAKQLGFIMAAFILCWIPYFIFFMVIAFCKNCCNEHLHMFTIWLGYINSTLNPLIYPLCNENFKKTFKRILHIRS
Chain of Sodium-dependent serotonin transporter (Homo sapiens) (P31645 whole entry, looked up): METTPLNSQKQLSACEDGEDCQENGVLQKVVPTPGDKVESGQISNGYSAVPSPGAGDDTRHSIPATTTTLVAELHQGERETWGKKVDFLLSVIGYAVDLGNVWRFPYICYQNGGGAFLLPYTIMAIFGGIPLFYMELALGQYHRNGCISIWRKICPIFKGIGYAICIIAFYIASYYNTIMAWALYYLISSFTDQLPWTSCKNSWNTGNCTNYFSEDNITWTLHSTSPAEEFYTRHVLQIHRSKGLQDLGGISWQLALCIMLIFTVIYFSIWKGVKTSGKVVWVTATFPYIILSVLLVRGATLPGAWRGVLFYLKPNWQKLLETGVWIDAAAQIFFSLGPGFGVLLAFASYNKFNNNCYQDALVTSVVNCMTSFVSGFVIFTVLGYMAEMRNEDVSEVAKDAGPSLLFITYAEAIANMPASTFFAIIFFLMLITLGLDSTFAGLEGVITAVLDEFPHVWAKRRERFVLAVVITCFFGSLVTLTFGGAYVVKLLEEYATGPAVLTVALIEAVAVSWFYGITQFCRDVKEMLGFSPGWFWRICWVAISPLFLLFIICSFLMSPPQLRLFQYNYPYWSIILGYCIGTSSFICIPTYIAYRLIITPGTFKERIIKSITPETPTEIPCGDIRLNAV
Chain of 5-hydroxytryptamine receptor 2A (Homo sapiens) (P28223 whole entry): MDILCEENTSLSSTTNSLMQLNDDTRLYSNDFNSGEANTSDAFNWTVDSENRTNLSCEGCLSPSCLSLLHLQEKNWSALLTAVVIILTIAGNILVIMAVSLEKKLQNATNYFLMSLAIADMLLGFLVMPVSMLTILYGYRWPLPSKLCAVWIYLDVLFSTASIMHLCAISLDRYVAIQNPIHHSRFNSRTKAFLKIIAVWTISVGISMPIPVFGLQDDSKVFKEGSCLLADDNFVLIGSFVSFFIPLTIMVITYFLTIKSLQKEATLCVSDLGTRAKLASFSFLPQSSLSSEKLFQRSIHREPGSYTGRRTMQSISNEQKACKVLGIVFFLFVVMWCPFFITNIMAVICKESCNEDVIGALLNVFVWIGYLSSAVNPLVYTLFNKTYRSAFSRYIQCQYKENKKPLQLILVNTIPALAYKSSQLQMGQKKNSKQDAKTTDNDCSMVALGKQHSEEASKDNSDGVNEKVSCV
Chain of 5-hydroxytryptamine receptor 7 (Rattus norvegicus) (P32305 whole entry): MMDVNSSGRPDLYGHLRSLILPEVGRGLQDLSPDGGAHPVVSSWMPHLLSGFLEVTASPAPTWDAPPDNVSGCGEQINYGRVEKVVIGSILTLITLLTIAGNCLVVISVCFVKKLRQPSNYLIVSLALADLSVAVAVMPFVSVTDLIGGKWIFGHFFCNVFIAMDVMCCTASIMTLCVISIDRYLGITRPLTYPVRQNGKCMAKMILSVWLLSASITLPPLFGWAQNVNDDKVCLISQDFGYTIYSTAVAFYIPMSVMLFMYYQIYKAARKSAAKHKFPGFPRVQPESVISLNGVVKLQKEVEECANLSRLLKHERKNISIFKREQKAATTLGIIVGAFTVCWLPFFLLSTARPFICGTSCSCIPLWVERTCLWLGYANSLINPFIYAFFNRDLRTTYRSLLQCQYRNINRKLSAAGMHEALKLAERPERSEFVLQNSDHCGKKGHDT
Chain of 5-hydroxytryptamine receptor 4 (Homo sapiens) (Q13639 whole entry): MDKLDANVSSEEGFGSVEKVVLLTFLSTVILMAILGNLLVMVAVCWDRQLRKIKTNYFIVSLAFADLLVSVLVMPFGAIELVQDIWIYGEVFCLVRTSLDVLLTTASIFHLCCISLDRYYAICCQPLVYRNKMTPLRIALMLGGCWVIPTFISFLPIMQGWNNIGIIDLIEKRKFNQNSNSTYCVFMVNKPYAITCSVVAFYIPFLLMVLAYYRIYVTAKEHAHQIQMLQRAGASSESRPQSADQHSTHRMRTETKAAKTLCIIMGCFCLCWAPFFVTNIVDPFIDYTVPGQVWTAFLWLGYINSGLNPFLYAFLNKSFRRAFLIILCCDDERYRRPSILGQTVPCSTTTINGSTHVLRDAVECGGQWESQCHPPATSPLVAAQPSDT
Chain of D(2) dopamine receptor (Homo sapiens) (P14416 whole entry): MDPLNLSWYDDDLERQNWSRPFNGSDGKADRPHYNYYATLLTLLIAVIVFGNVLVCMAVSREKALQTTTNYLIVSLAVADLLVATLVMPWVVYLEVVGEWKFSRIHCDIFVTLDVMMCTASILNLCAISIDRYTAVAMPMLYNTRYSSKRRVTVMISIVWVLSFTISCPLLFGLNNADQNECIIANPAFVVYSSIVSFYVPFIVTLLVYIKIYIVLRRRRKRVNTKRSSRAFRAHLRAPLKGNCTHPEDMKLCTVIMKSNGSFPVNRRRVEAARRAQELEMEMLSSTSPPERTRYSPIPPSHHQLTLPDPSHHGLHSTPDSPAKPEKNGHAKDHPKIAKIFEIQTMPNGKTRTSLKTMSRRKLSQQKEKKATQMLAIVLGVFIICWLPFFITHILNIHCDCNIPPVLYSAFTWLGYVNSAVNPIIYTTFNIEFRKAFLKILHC
Chain of Sodium-dependent dopamine transporter (Homo sapiens) (Q01959 whole entry): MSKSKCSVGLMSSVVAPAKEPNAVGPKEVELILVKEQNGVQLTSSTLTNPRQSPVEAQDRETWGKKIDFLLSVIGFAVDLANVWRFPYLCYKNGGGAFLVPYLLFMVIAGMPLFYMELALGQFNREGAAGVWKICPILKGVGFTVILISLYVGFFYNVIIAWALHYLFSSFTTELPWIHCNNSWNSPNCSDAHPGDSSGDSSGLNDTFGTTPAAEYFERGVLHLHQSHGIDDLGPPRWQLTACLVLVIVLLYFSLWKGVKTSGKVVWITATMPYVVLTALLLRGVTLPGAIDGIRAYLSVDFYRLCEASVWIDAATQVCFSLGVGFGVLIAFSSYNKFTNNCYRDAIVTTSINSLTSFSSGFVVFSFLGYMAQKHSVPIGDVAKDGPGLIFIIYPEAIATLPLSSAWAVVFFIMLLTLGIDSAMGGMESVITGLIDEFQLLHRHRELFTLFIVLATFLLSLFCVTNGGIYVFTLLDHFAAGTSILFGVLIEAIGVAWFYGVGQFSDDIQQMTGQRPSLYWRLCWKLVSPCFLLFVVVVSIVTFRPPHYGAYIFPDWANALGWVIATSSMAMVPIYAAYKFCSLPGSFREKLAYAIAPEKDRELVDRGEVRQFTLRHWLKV
Chain of Cytochrome P450 2D6 (P10635 whole entry): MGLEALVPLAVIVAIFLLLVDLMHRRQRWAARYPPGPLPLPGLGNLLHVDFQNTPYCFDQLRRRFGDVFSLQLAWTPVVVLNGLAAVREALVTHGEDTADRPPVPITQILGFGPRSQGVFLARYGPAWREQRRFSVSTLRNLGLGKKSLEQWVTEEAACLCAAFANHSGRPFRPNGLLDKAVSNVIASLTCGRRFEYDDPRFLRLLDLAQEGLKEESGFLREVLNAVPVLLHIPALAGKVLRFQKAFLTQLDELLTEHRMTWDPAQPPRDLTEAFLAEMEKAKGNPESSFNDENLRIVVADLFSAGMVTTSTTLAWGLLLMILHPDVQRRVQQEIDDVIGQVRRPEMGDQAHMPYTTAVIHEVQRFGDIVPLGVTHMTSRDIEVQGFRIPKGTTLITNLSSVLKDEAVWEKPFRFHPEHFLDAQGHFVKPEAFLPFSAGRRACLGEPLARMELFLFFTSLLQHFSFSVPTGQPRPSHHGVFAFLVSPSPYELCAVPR
Chain of 5-hydroxytryptamine receptor 6 (Homo sapiens) (P50406 whole entry): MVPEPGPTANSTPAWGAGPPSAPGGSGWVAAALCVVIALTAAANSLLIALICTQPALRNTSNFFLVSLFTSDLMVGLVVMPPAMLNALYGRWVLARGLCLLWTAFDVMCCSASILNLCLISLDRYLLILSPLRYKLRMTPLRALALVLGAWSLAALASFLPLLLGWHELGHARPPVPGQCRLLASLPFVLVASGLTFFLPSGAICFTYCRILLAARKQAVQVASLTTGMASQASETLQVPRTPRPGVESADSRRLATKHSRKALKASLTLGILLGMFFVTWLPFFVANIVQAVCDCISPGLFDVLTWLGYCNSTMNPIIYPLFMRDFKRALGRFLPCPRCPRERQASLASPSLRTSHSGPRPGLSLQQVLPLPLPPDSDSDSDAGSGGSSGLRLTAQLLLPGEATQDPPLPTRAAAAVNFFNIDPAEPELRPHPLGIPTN

SMILES: CN1CC(Cl)=C(c2cn(S(=O)(=O)c3ccccc3)c3ccccc23)C1
- inhibition [1]: < 50%
- inhibition [2]: < 50%
- inhibition [3]: < 50%
- half-life [4]: 3.75 h
- inhibition [5]: < 50%
- metabolised at 0.5 h [6]: 70%
- CL/F [7]: 585 mL/min/kg
- Kp at 6 h [8]: 1.79
- Kb [9]: 0.0001 µM
- inhibition [10]: < 50%
- AUC(0-t) [11]: 2320 ng·h/mL
- half-life [12]: 5.48 h
- Activity [13]: Active
- inhibition [14]: < 50%
- metabolised at 0.5 h [15]: 43%
- Activity [16]: Active
- Cmax [17]: 2690 ng/mL
- inhibition [18]: < 50%
- clearance [19]: 72.5 mL/min/kg
- IC50 [20]: 14.7 µM
- inhibition [21]: < 50%
- bioavailability [22]: 12%
- IC50 [23]: 21.1 µM
- inhibition [24]: < 50%
- Vz [25]: 196.287 L/kg
- inhibition [26]: < 50%
- Vd [27]: 34.9 L/kg
- inhibition [28]: < 50%
- Cmax [29]: 105 ng/mL
- AUC(0-t) [30]: 268 ng·h/mL

Reference: ChEMBL document CHEMBL1806380, “Rigidized 1-aryl sulfonyl tryptamines: synthesis and pharmacological evaluation as 5-HT6 receptor ligands” (Bioorg Med Chem Lett, 2011)
